Measurements: patent EP1039902B1, “INHIBITORS OF GAP JUNCTION COMMUNICATION” (THE SCRIPPS RESEARCH INSTITUTE, priority 1997, dated 1999)
“Also recorded” adds a separate entry of the source.

Columns and labels:
[1] = system: rat glial cell gap junction; assay: Gap junction dye coupling assay (Lucifer yellow dye transfer; microinjection or scrape loading); format: cell-based; conditions: for potency of gap junction inhibition relative to oleamide: comparison in words
Description: (§1) Rat glial cells (Suter et al., 1987) obtained from Dr. Trosko's laboratory were cultured in standard plastic tissue cultureware in Richter's Improved Minimal Essential Medium (Irvine Scientific, Santa Ana, CA), supplemented with 10% fetal calf serum and 50 µg/ml gentamicin sulfate, and incubated in a humidified atmosphere of 95% air/5% CO2 at 37°C. The cells were passaged by trypsinization and used at passages 4-8. BHK (baby hamster kidney) cells that were stably transfected with a β1 connexin cDNA (Kumar et al., 1995) were cultured in DMEM medium supplemented with 5% fetal calf serum and 50 µg/ml gentamicin sulfate, and incubated in a humidified atmosphere of 95% air/5% CO2 at 37° C. In order to induce β1 connexin expression in the BHK cells, 100 µM zinc acetate was added to culture medium for 8-18 hours when the cell culture was about 90% confluent.
(§2) Gap junctional communication in glial cell and BHK/β1 cell cultures was assayed by microinjection of 5% Lucifer yellow CH dye in 0.1 M LiCl solution, and quantitated by determining the number of directly adjacent, neighboring cells that received dye (dye-coupling). Micropipettes were loaded with the dye solution by backfilling. Cells were visualized using a Nikon Diaphot inverted phase contrast/ epifluorescent microscope, and impaled with dye-filled micropipettes using an Eppendorf microinjector (model 5246). Five minutes after dye-injection, the transfer of dye to directly adjacent cells was determined using epifluorescent illumination. For each treatment condition, ten cells were microinjected in each of three dishes, the total number of dye-coupled neighboring cells was calculated and compared to determine the % dye-coupling. For scrape loading measurements, Lucifer yellow CH (0.05% dye in PBS) was loaded intracellularly by cutting or scraping cells in the monolayer with a sharp knife. The dye solution was left in the dish for 90 seconds, then the solution was discarded, and the dish subsequently washed with PBS. The cells were examined for dye transfer with an inverted epifluorescence microscope, and the degree of communication was assessed by determining the extent of Lucifer yellow transfer into contiguous cells.

rat glial cells = assay: Calcium wave propagation (Fluo-3, mechanical stimulation); format: cell-based
Description: Rat glial cells were loaded with 5 µM Fluo-3/AM (Calbiochem) in Hank's balanced salt solution containing 25 mM HEPES buffer (HBSS/HEPES) for 1 hour, at which point the loading buffer was exchanged for new HBSS/HEPES buffer. The cell cultures were then left at room temperature for at least 30 minutes. Mechanical stimulation of a single cell was performed as follows: a glass micropipette (tip diameter of approximately 0.5 µm) was micro-manipulated downward on to a single cell causing a transient deformation of the cell membrane. The calcium image was then examined with an inverted fluorescence microscope, and photographed with a digital fluorescence microscope (excitation = 506 nm, emmision = 526 nm). The degree of calcium wave propagation was quantitated by counting at different time points the number of transmitting cells in one linear direction away from the stimulated cell. Junctional dye transfer rates were simultaneously examined by microinjection of Lucifer yellow CH in the same dishes; the methods for dye transfer assay was described in assay procedures, gap junction dye coupling assays. For calcium wave and dye transfer studies, the drug was preincubated with the glial cells for 10 minutes, and the drug was left in the experimental solution throughout the examination. All measurements were performed at room temperature.

BHK/β1 cells = assay: Gap junction dye transfer between β1 connexin-transfected BHK cells; format: cell-based, baby hamster; conditions: concentration not given
Description: as §1, §2

[2] = result in words, concentration not stated at the place

SMILES	inhibition of gap junction-mediated dye transfer [1, 2]	further results
CCCCCCCC/C=C\CCCCCCCCO [oleyl alcohol, Oleyl alcohol]	progressively reduced effectiveness	
CCCCCCCO [heptanol, reference compound]		calcium wave propagation (rat glial cells; 3 mM): completely blocking; block of dye transfer ([1]; 3 mM): completely blocking; minimal effective concentration ([1]; Rattus norvegicus, Glial cell, read-out: concentrations required to inhibit junctional communication): 3000 µM; effect on dye transfer (BHK/β1 cells): inhibitory effects
NC(=O)CCCCCCC/C=C\CCCCCCCC(N)=O [symmetrical 18:1^9 dicarboxamide]		inhibition of gap junction-mediated dye transfer ([1]; 50 µM): no gap junction inhibition
CCCCCCCCCCCCCCCCCC(N)=O [18:0, stearamide]	no observable inhibition	inhibition of gap junction-mediated dye transfer ([1]; result in words, concentration not given, listed as octadecanamide): ineffective
CC/C=C\C/C=C\C/C=C\CCCCCCCC(N)=O [α-linolenamide]		inhibition of gap junction-mediated dye transfer ([1]; 50 µM): ineffective
CCCCCCCC/C=C\CCCCCCCCOC(C)=O [oleyl acetate, Oleyl acetate]	progressively reduced effectiveness	
CCCCCCCC/C=C\CCCCCCC(O)C(N)=O (stereo not drawn) [α-hydroxy oleamide, 2-hydroxy-9Z-octadecenamide]	effective inhibitors	
CCCCCCCC/C=C\CCCCCCCC(=O)OCC [ethyl oleate]	progressively reduced effectiveness	
CCCCCCCC/C=C\CCCCCCCC(=O)CCl [ClCH2]	substantially less effective	
CCCCCC/C=C\CCCCCCCCCC(N)=O [cis-11-octadecenamide]		inhibition of gap junction-mediated dye transfer ([1]; 50 µM): only slightly affected junctional coupling; inhibition of gap junction-mediated dye transfer ([1]; 100 µM): completely blocked dye transfer
CCCCCCCC/C=C\CCCCCCCC(=O)N(C)CC(=O)O [N-oleoyl sarcosine]	effective inhibitors	
CC1(C)[C@@H](O)CC[C@]2(C)[C@H]3C(=O)C=C4[C@@H]5C[C@@](C)(C(=O)O)CC[C@]5(C)CC[C@@]4(C)[C@]3(C)CC[C@@H]12 [18β-GA, 18β-glycyrrhetinic acid, reference compound]		calcium wave propagation (rat glial cells; 40 µM, 10 minutes prior to mechanical stimulation): completely blocking; also recorded: did not propagate to any other cells; block of dye transfer ([1]; 40 µM): completely blocking; potency of gap junction inhibition relative to oleamide [1]: blocked dye transfer at doses comparable to oleamide; effect on dye transfer (BHK/β1 cells): inhibitory effects
NC(=O)CCCCCCC/C=C\CCCCCCCCO [terminal alcohol, 18-hydroxyoleamide]		inhibition of gap junction-mediated dye transfer ([1]; 50 µM): no gap junction inhibition
CCCCCCCC/C=C\CCCCCCCC(=O)OC[C@H](CO)OC(C)=O [(2S)-1-oleoyl-2-acetylglycerol, reference compound]	not inhibitors	
CCCCCCCC/C=C\CCCCCCCC(=O)CBr [BrCH2, 1-Bromo-10Z-nonadecen-2-one]	substantially less effective	
CCCCCCCC/C=C\CCCCCCC(C)C(N)=O (stereo not drawn) [α-methyl oleamide]	potent inhibitors	
CCCCCCCCC#CCCCCCCCC(N)=O [compound 2, 9-octadecynamide]	potent inhibitor	potency of gap junction inhibition relative to oleamide [1]: only slightly less active than oleamide
CCCCCCCC/C=C\CCCCCCCC(=O)NCC(=O)OCC [N-oleoyl glycine ethyl ester]	effective, albeit slightly less potent, inhibitor	
CCCCC/C=C\C/C=C\CCCCCCCC(N)=O [linoleamide, Linoleamide]		potency of gap junction inhibition relative to oleamide [1]: lower than oleamide

SMILES	inhibition of gap junction-mediated dye transfer [1, 2]	further results
CCCCCCCC/C=C\CCCCCCCC(=O)NCC(=O)O [N-oleoyl glycine]	ineffective	
CCCCCCCC/C=C\CCCCCCCC(=O)N(C)OC [MeONMe]	most potent of the agents examined	
CCCCCCCC/C=C\CCCCCCCC(OC)OC [oleyl aldehyde dimethyl acetal, Oleyl aldehyde dimethyl acetal]	inactive	
CCCCCCCC/C=C\CCCCCCC(SC(C)=O)C(N)=O (stereo not drawn) [α-acetylthiooleamide]	effective inhibitors	
CCCCC/C=C\C/C=C\C/C=C\CCCCC(N)=O [γ-linolenamide]	effective but less potent inhibitor	
CCCCC/C=C\C/C=C\C/C=C\C/C=C\CCCC(N)=O [arachidonamide]	effective inhibitor	potency of gap junction inhibition relative to oleamide [1]: not quite as potent as oleamide
CCCC/C=C\CCCCCCCC(N)=O [14:1^9, Myristoleamide]	loss of activity	
CCCCCCCC/C=C\CCCCCCCC(=O)NCC(N)=O [N-oleoyl glycinamide]	ineffective	
CCCCCCCC/C=C\CCCCCCCC(=O)N(C)CC(=O)OCC [N-oleoyl sarcosine ethyl ester]	effective inhibitors	
Cc1ccc(C(=O)Nc2ccc(S(=O)(=O)O)c3cc(S(=O)(=O)O)cc(S(=O)(=O)O)c23)cc1NC(=O)c1cccc(NC(=O)Nc2cccc(C(=O)Nc3cc(C(=O)Nc4ccc(S(=O)(=O)O)c5cc(S(=O)(=O)O)cc(S(=O)(=O)O)c45)ccc3C)c2)c1 [suramin, reference compound]		glial calcium wave transmission (rat glial cells; 200 µM): blocked glial calcium wave transmission; gap junction communication ([1]; 200 µM): without affecting gap junction communication
NC(=O)CCCCCCC/C=C\CCCCCCCC(=O)O [carboxylic acid]		inhibition of gap junction-mediated dye transfer ([1]; 50 µM): no gap junction inhibition
CCCCCCCCC/C=C\CCCCCCC(N)=O [cis-8-octadecenamide]		inhibition of gap junction-mediated dye transfer ([1]; 50 µM): significant inhibitors; potency of gap junction inhibition relative to oleamide [1]: less potent than oleamide at lower doses
CCCCCC/C=C\CCCCCCCC(N)=O [palmitoleamide, Palmitoleamide]	potent activity	
CCCCCCCC/C=C\CCCCCCC(S)C(N)=O (centres unmarked) [CHSH]	ineffective	
CCCCCCCC/C=C\CCCCCCC(Cl)C(N)=O (stereo not drawn) [α-chlorooleamide]	effective inhibitors	
CCCCCCCC/C=C\CCCCCCC(C)(C)C(N)=O [α,α-dimethyl oleamide]	potent inhibitors	
COCCCCCCCC/C=C\CCCCCCCC(N)=O [CH2OCH3]	did not effect the gap junction inhibition	
CCCCCCCC/C=C\CCCCCCCC(=O)OC [methyl oleate]	progressively reduced effectiveness	
CCCCCCCC/C=C\CCCCCCCC(=O)NCCCO [oleyl propanolamide]	comparable properties	
